Key:
CYP105AS1 = molecular target: T1, CYP105AS1 (Amycolatopsis orientalis, UniProt W5VH56); experiment: UV-vis spectral (type I Soret shift) titration of 3-8 uM purified P450 with compactin from DMSO stocks at 25 °C in 50 mM potassium phosphate, 300 mM KCl, 10% glycerol, pH 8.0; hyperbolic or Morrison tight-binding fit.
T1 construct: N-terminal polyhistidine tag, pBAD vector, expressed in E. coli Top10
T1 sequence (W5VH56 1-401): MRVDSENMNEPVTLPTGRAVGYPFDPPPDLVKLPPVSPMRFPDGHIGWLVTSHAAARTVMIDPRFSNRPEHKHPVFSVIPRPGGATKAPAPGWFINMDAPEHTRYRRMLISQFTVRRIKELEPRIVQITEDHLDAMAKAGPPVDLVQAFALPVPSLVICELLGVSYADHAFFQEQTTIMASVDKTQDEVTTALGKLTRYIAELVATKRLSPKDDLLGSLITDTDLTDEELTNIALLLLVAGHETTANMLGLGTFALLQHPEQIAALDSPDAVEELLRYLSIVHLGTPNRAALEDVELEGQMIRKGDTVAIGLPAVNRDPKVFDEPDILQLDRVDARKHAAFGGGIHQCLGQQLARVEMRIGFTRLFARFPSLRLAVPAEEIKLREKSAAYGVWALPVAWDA
Protocol: (§1) Absorbance spectra (300–800 nm) of P450 variants were measured on a Cary 60 UV–vis spectrophotometer at 25 °C using 3–8 μM protein in buffer A. The pyridine hemochromogen method was used to quantify CYP105AS1 P450 variant heme concentrations and to determine an extinction coefficient at the heme Soret maximum for each variant.[89] For titration, compactin (0.05–0.5 μL) was added from 5 to 50 mM stock solutions in DMSO. The overall absorbance change (ΔAmax) was calculated as Apeak (absorbance maximum) minus Atrough (absorbance minimum) and plotted against the substrate concentration. Data were fitted according to a standard hyperbolic binding equation or a Morrison equation for tight-binding to determine dissociation constants (Kd).[90],[91]
(§2) UV–vis substrate binding studies were conducted to investigate the effect of mutations on compactin binding. […] Probably, the bulky aromatic side chain of the introduced Phe95 residue influenced the binding of compactin, which allowed elimination of the proximal water ligand and full conversion to the high-spin state upon binding of this substrate.

P450pra + P80G = molecular target: T2, P450pra + P80G (Amycolatopsis orientalis, UniProt W5VH56, P80G/I95T/Q127R/A180V/L236I/A265N); type: binding
T2 construct: N-terminal polyhistidine tag, expressed in E. coli
Protocol: as §1, §2

P450pra + T95W = molecular target: T3, P450pra + T95W (Amycolatopsis orientalis, UniProt W5VH56, I95W/Q127R/A180V/L236I/A265N); type: binding
T3 construct: N-terminal polyhistidine tag, expressed in E. coli
Protocol: as §1, §2

P450pra +V180M = molecular target: T4, P450pra +V180M (Amycolatopsis orientalis, UniProt W5VH56, I95T/Q127R/A180M/L236I/A265N); type: binding
T4 construct: N-terminal polyhistidine tag, expressed in E. coli
Protocol: as §1, §2

P450pra + T286I = molecular target: T5, P450pra + T286I (Amycolatopsis orientalis, UniProt W5VH56, I95T/Q127R/A180V/L236I/A265N/T286I); type: binding
T5 construct: N-terminal polyhistidine tag, expressed in E. coli
Protocol: as §1, §2

P450pra + T95F = molecular target: T6, P450pra + T95F (Amycolatopsis orientalis, UniProt W5VH56, I95F/Q127R/A180V/L236I/A265N); type: binding
T6 construct: N-terminal polyhistidine tag, expressed in E. coli
Protocol: as §1, §2

P450pra + F76N = molecular target: T7, P450pra + F76N (Amycolatopsis orientalis, UniProt W5VH56, F76N/I95T/Q127R/A180V/L236I/A265N); type: binding
T7 construct: N-terminal polyhistidine tag, expressed in E. coli
Protocol: as §1, §2

P450pra +V180I = molecular target: T8, P450pra +V180I (Amycolatopsis orientalis, UniProt W5VH56, I95T/Q127R/A180I/L236I/A265N); type: binding
T8 construct: N-terminal polyhistidine tag, expressed in E. coli
Protocol: as §1, §2

P450pra = molecular target: T9, P450pra (Amycolatopsis orientalis, UniProt W5VH56, I95T/Q127R/A180V/L236I/A265N); type: binding
T9 construct: N-terminal polyhistidine tag, expressed in E. coli; directed evolution variant
Protocol: as §1, §2

[1] = molecular target: T10, P450pra + T95F/V180M (=P450pra100) (Amycolatopsis orientalis, UniProt W5VH56, I95F/Q127R/A180M/L236I/A265N); type: binding
T10 construct: N-terminal polyhistidine tag, expressed in E. coli
Protocol: as §1, §2

human CYP3A4 = system: human CYP3A4; design: method as in PMID 19530969; conditions: cited from earlier work
CYP3A5 = system: CYP3A5; design: method as in PMID 19530969; conditions: cited from earlier work

T4 sequence (W5VH56 entry or part of it I95T/Q127R/A180M/L236I/A265N): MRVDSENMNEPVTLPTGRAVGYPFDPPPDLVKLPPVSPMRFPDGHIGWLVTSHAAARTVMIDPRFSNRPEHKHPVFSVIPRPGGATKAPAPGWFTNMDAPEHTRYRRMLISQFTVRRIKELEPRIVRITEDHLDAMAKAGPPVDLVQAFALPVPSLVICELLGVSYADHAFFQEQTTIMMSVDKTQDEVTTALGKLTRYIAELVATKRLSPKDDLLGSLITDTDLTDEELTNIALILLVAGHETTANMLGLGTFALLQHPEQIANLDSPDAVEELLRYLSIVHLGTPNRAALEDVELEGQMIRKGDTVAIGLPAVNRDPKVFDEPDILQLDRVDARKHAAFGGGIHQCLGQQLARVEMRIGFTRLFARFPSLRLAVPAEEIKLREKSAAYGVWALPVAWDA
T9 sequence (W5VH56 entry or part of it I95T/Q127R/A180V/L236I/A265N): as the sequence (W5VH56 entry or part of it I95T/Q127R/A180M/L236I/A265N) above, with M180V counted along it
T3 sequence (W5VH56 entry or part of it I95W/Q127R/A180V/L236I/A265N): as the sequence (W5VH56 entry or part of it I95T/Q127R/A180M/L236I/A265N) above, with T95W, M180V counted along it
T5 sequence (W5VH56 entry or part of it I95T/Q127R/A180V/L236I/A265N/T286I): as the sequence (W5VH56 entry or part of it I95T/Q127R/A180M/L236I/A265N) above, with M180V, T286I counted along it
T2 sequence (W5VH56 entry or part of it P80G/I95T/Q127R/A180V/L236I/A265N): as the sequence (W5VH56 entry or part of it I95T/Q127R/A180M/L236I/A265N) above, with P80G, M180V counted along it
T7 sequence (W5VH56 entry or part of it F76N/I95T/Q127R/A180V/L236I/A265N): as the sequence (W5VH56 entry or part of it I95T/Q127R/A180M/L236I/A265N) above, with F76N, M180V counted along it
T8 sequence (W5VH56 entry or part of it I95T/Q127R/A180I/L236I/A265N): as the sequence (W5VH56 entry or part of it I95T/Q127R/A180M/L236I/A265N) above, with M180I counted along it
T10 sequence (W5VH56 entry or part of it I95F/Q127R/A180M/L236I/A265N): as the sequence (W5VH56 entry or part of it I95T/Q127R/A180M/L236I/A265N) above, with T95F counted along it
T6 sequence (W5VH56 entry or part of it I95F/Q127R/A180V/L236I/A265N): as the sequence (W5VH56 entry or part of it I95T/Q127R/A180M/L236I/A265N) above, with T95F, M180V counted along it

Compound	Kd (CYP105AS1) [nM]	Kd (P450pra + P80G) [nM]	Kd (P450pra + T95W) [nM]	Kd (P450pra +V180M) [nM]	Kd (P450pra + T286I) [nM]	Kd (P450pra + T95F) [nM]	Kd (P450pra + F76N) [nM]	Kd (P450pra +V180I) [nM]	Kd (P450pra) [nM]	Kd [1] [nM]	metabolism by human CYP3A4 (human CYP3A4)	metabolism by human CYP3A5 (CYP3A5)
CC[C@H](C)C(=O)O[C@H]1CCC=C2C=C[C@H](C)[C@H](CC[C@@H]3C[C@@H](O)CC(=O)O3)[C@H]21 [compactin, compactin (mevastatin)]	30300 ± 5200	5840 ± 340	3290 ± 30	1340 ± 60	4930 ± 250	250 ± 10	4810 ± 250	1640 ± 130	770 ± 70	130 ± 30	–	–
CC[C@H](C)C(=O)O[C@H]1C[C@H](O)C=C2C=C[C@H](C)[C@H](CC[C@@H](O)C[C@@H](O)CC(=O)O)[C@H]21 [pravastatin]	–	–	–	–	–	–	–	–	–	–	not significantly metabolized	not significantly metabolized
